From PMC7125190, “Native/citrullinated LL37-specific T-cells help autoantibody production in Systemic Lupus Erythematosus” (Scientific Reports, 2020)

Columns and labels:
[1] = system: SLE/CLE CD4+ T-cell clones; assay: T-cell clone reactivity (BrdU, HLA-matched B-LCLs pulsed with peptide); assay type: cell-based, human; details: clones from one SLE and one CLE patient
Procedure: PBMCs were purified, from EDTA-treated blood, on Ficoll-Hypaque (Pharmacia Fine Chemicals, Uppsala, Sweden) were incubated (10^5 cells/well) in 96-well-flat-bottom-microplates (BD) in T cell-medium (RPMI 1640, 10% heat-inactivated human serum, HS, Gibco), 2 mM L-glutamine, 10 U/mL penicillin, and 100 μg/mL streptomycin), with/without peptides. We performed assays on fresh cells, within 1-to-3 hours from collection, or on PBMCs frozen in 90% FCS-10%DMSO, whose viability we assessed by Trypan blue exclusion, at inverted microscope. Recovery of live cells was between 65 and 85 % of the frozen number. At day3 and 5, BrdU was added (1 μg/mL). BrdU-incorporation was detected by APC-labeled anti-BrdU antibody (BD Pharmingen), after surface staining by flow cytometry. Internal control for T-cell viability and proliferation was PHA treatment (2 μg/mL). SI for proliferation was calculated by dividing percent of BrdU-staining in the presence of each peptide used to stimulate cells by percent of BrdU-staining in the absence of peptide stimulation. SI for proliferation was considered positive when>3. This cut-off was obtained by calculating the mean+2DS [1.5 + 2 (0.6)] (of the stimulation indexes calculated as above) of the proliferation of HD. […]
Assays were repeated twice with each patient. […] Ror-ɣt and Bcl-6 were measured by intracellular staining and flow cytometry, after 48 hours culture with LL37 or control antigen, and were analyzed on CD38highCD4 T-cells. […]
PBMCs were stimulated (2x10^6 cells/mL) with LL37 for 7 days and re-stimulated (10 days) with LL37-pulsed (10 µg/mL) autologous-ɣ-irradiated-(30Gy)-PBMCs in T-cell medium in the presence of human/recombinant (hr)IL-2 (Boehringer-Mannheim, Indian, USA). T cell lines-specificity was analyzed by using peptide-pulsed (0.1-10 µg/mL) autologous-irradiated PBMCs (30Gy) or lymphoblastoid-cell-lines (B-LCLs) (150Gy, 33). […]
analyzed by flow-cytometry (after staining by BrdU-detection kit, BD Pharmingen). […] Clones reactivity and HLA-restriction were analyzed using HLA-matched-homozigous B-LCLs, pulsed with […]

[2] = system: PBMCs; assay: IL-21 production in PBMC cultures (ELISA); assay type: cell-based, human; details: SLE (but not in psoriasis)
Description: analyzed by flow-cytometry (after staining by BrdU-detection kit, BD Pharmingen). Before cloning, bulk-cultures were stimulated with autologous-irradiated PBMCs and peptide over night, and stained for CD3 and CD4 and with the “Cytokine secretion assays kits” (MACS, Miltenyi Biotec) to detect IL-2-, IFN-ɣ- and/or IL-17-secretion and CD38 as an activation marker, and sorted by a cell-sorter (MoFlo Astrios, Beckman Coulter). Dead cells were excluded by DAPI staining. Sorted activated CD4+CD3+ cells, secreting cytokines were cloned by limiting dilution in Terasaki plates (Nunc Microwell, Sigma-Aldrich) in the presence of allogeneic-irradiated (104) PBMCs activated by phytohaemagglutinin (1 µg/mL, PHA, Murex, 0.5 cells/well) and 100 U/mL of hrIL-2. Clones reactivity and HLA-restriction were analyzed using HLA-matched-homozigous B-LCLs, pulsed with […]
Measurement of cytokine production in primary T-cells and T-cell lines/clones Cytokines secretion was detected by ELISA (Quantikine; R&D Systems, Minneapolis, MN) for IL-4, IL-10, IL-17, IFN-ɣ, IL-22, IL-21, or by Th1/Th2 10-Plex and IL-17-Tissue Culture Kits (read by MSD Sector Imager 2400, Meso Scale Discovery, Gaithersburg, MD). Supernatants were harvested from primary cultures at day 3 (day 2 for T-cell lines/clones). Production of cytokines was also analyzed by flow cytometry after culture of PBMCs with LL37/LL37-peptides for 6-7 days. […]

LLGDFFRKSKEKIGKEFKRIVQRIKDFLRNLVPRTES [LL37, native LL37, antimicrobial peptide, 37 aa]
T-cell clone reactivity [1]: Some of the T-cell clones proliferated exclusively after stimulation with native LL37
IL-21 production [2]: significant up-regulation

LLGDFFR(cit)KSKEKIGKEFKR(cit)IVQR(cit)IKDFLR(cit)NLVPR(cit)TES [cit-LL37, citrullinated LL37 (citrullinated at all five arginin positions)]
T-cell clone reactivity [1]: Other clones proliferated to both native LL37 and cit-LL37
IL-21 production [2]: significant up-regulation
